Type in all cases: in vivo
The test system of one assay is test plants. Kind of assay: Example B1 herbicidal action, post-emergence, all test species together. As to conditions: Example B1 protocol, 1000 g/ha, after 9 days, result in words. On the procedure: Seeds of a variety of test species were sown in sterilized standard soil in seed trays each having 96 cells. After cultivation for 8 to 9 days cultivation (post-emergence) under controlled conditions in a climatic chamber (cultivation at 23/17° C., day/night; 13 hours light; 50-60% humidity), the plants were treated with an aqueous spray solution of 1000 mg/l of the active ingredient dissolved in 10% DMSO (dimethyl sulfoxide, CAS RN 67-68-5) as a solvent, equivalent to 1000 g/ha. The plants were grown in the climatic chamber after application at (24/19° C., day/night; 13 hours light; 50-60% humidity) and watered twice daily. After 9 days until the test was evaluated (10=total damage to plant, 0=no damage to plant)

A further assay concerns Alopecurus myosuroides. Briefly: Example B3 herbicidal action, post-emergence, small pots in glasshouse, damage score 0-10. As to conditions: 1000 g/ha, evaluated after 13 days, 10=total damage to plant, 0=no damage to plant. On the procedure:
(§1) Seeds of a variety of test species were sown in sterilized compost in small pots. After cultivation for seven days (post-emergence) in controlled conditions in the glasshouse (at 24/16° C., day/night; 14 hours light; 65% humidity) the plants were sprayed with 1 mg of the active ingredient, formulated in 2.5 ml acetone/water (50:50) solution, which is equivalent to 1000 g/ha. Once the foliage was dry, the pots were kept in the glasshouse (at 24/16° C., day/night; 14 hours light; 65% humidity), and were watered twice daily. After 13 days the test was evaluated (10=total damage to plant, 0=no damage to plant).

For the next assay, the system named is Chenopodium album. Described as above. As to conditions: 1000 g/ha, evaluated after 13 days, 10=total damage to plant, 0=no damage to plant. The protocol:
as §1

Regarding `CC(C)C(=O)OC1=C(c2ccc(Cl)cc2Cl)S(=O)(=O)Nc2nccnc21` [Compound B2], the “damage to the test plants” value in the assay with test plants is reported as “little or no damage”.
Turning to `CC(C)(C)C(=O)OC1=C(c2ccc(Cl)cc2Cl)S(=O)(=O)N(CC(F)F)c2nccnc21` [Compound C12, 2,2-dimethyl-propionic acid-3-(2,4-dichloro-phenyl)-1-(2,2-difluoroethyl)-2,2-dioxo-1,2-dihydro-2-λ-6-thia-1,5,8-triaza-naphthalen-4-yl ester], in the assay on Alopecurus myosuroides, the “damage to plant, ALOMY” value amounted to 6. Moreover, in the assay on Chenopodium album, the “damage to plant, CHEAL” value is 9.
`CC(C)(C)C(=O)OC1=C(c2ccc(Cl)c(Cl)c2)S(=O)(=O)Nc2nccnc21` [Compound B4]: the “damage to the test plants” value in the assay on test plants is on record as “little or no damage”.

The record behind these values is patent US8133849B2, “Herbicidal compounds” (Syngenta Limited, priority 2007, dated 2012).
